Values of other authors as cited in US20070208041A1, “Compositions for the treatment and prevention of heart disease and methods of using same” (priority 2005, published 2007).

Key:
[1] = allopurinol alone
[2] = tested on: phenylephrine-constricted rat aorta

Row | SMILES | outcome of clinical trials [1] | effect of ALDH-2 inhibitor benomyl on vasodilator response [2]
1 | Oc1ncnc2[nH]ncc12 [allopurinol] | not successful | –
2 | O=[N+]([O-])O[C@@H]1CO[C@H]2[C@@H]1OC[C@@H]2O [isosorbide-5-mononitrate, 1,4:3,6-dianhydrosorbitol 5-mononitrate] | – | not affected
3 | O=[N+]([O-])OCC(CO[N+](=O)[O-])O[N+](=O)[O-] [GTN] | – | reduced the vasodilator potency, but not the efficacy
4 | O=[N+]([O-])O[C@H]1CO[C@H]2[C@@H]1OC[C@H]2O[N+](=O)[O-] [isosorbide dinitrate, 1,4:3,6-dianhydrosorbitol 2,5-dinitrate] | – | not affected
5 | O=[N+]([O-])OCC(CO)(CO)CO [pentaerythritol mononitrate] | – | not affected
